Assay results: a melting point compilation (Tetko et al.)

Row | melting point [°C] | Structure (SMILES)
1 | 62 | CCOC(=O)c1cnc(SC)nc1Cl
2 | 214 to 216 | CC(=CNNc1nc(C)cc(C)n1)c1ccncc1
3 | 15 | CC(=O)C(C)O (stereo unspecified)
4 | 200 | COC(=O)C(C#N)=Cc1cc(Br)c(O)c(OC)c1
5 | 214 to 215 | Cc1nc(-c2ccccc2)sc1C(=O)O
6 | 157 | CC1CC(N(C)C)C(O)C(OC2C(C)CC(C)C(=O)C=CC(C)C(C(C)O)OC(=O)C2C)O1 (stereo unspecified)
7 | 99 | CC(C)(C)c1ccc2c(c1)C(=O)c1ccccc1C2=O
8 | 162 to 164 | CC(=O)ON(/C=C1\C(=O)C2(C)CCC1C2(C)C)c1ccccc1 (stereo unspecified)
9 | 237 | O=C(O)c1cc(I)c(O)c(I)c1
10 | 92 to 94 | Cc1ccc(O)c(C(=O)CC(=O)c2ccccc2)c1
11 | 61 | CSC(SC)=C(C(C)=O)C(C)=O
12 | 143 | COC(=O)CC1Sc2ccccc2NC1=O (stereo unspecified)
13 | 76 | CCOC(=O)NC1C2CCC(C)(C1O)C2(C)C (stereo unspecified)
14 | -1 | CCC(C)(C)C(C)(C)O
15 | 1 | CC(C)C12CCC(C)(CC1)O2
16 | 198 to 199 | Cn1c(=O)c2c(nc(Cl)n2CC(=O)O)n(C)c1=O
17 | 75 to 77 | Cc1cc(C(=O)CC#N)c(C(F)(F)F)o1
18 | 31.5 | CC(C)C(=O)C(=O)O
19 | 118 | O=C(c1ccccc1)c1cc(C(=O)c2ccccc2)cc(C(=O)c2ccccc2)c1
20 | 34 to 37 | COC(=O)c1ccc(C)nc1
21 | 178 to 182 | O=C1CC2C(Br)CC1C2C(=O)O (stereo unspecified)
22 | 126 to 128 | O=C(O)CCn1c(=O)oc2ccccc21
23 | 75 | CC1CCC(C(C)C)C(OC(=O)c2ccc(C(=O)OC3CC(C)CCC3C(C)C)cc2)C1 (stereo unspecified)
24 | 57 to 60 | CCOC(=O)C1=C(N)CCC1

Row | melting point [°C] | Structure (SMILES)
25 | 181 to 184 | Cc1ccc(C2(C(=O)O)CCCC2)cc1
26 | 110 to 113 | CC(C)(C)OC(=O)N[C@@H](CCC(=O)O)C(=O)O
27 | 101 | CC1CCC(C)(COC(=S)Nc2ccccc2)C1(C)C (stereo unspecified)
28 | 62 | CCOC(=O)C(CCC#N)(CCC#N)C(=O)OCC
29 | 18 | CCCCCCC=CCC(=O)O
30 | 224 | COc1ccc(C=C(C(=O)O)C(=Cc2ccc(OC)c(OC)c2)C(=O)O)cc1OC
31 | 263 to 268 | Cc1nc(-c2ccc(C(=O)O)cc2)cs1
32 | 152 to 160 | OC1COC(O)C(O)C1O (stereo unspecified)
33 | -137 | CC/C=C\C(C)(C)C
34 | 200 to 202 | CC(C)(O)C(N)C(=O)O (racemic)
35 | 87 | O=C(O)CC(O)(C(F)(F)F)C(F)(F)F
36 | 160 to 169 | O=C(O)C1CC2CC1CCC2O (stereo unspecified)
37 | 166 to 170 | Cc1ccc(C2(C(=O)O)CCCCC2)cc1
38 | 240 | N[C@@H](CS)C(=O)O
39 | 124 to 126 | Cc1oc(C(=O)NN)nc1-c1ccccc1
40 | -11 | CN(C)[Si](C)(N(C)C)N(C)C
41 | 66 to 70 | COC(=O)c1c(C)cc(=O)oc1C
42 | 184 | CCOC(=O)/C(=N\Nc1ccc([N+](=O)[O-])cc1)C(=O)C(F)(F)F
43 | 81 to 86 | COC(=O)CC(=O)c1ccc(C(=O)OC)cc1
44 | 31.5 | Cc1ccc(C(=O)CCCCl)cc1
45 | 17 | CC(C)(C)C(C)(C)O
46 | -70 | CCN(CC)C(C)O (stereo unspecified)
47 | 76 to 80 | COC(=O)c1cnc(Cl)nc1

Further lines, the compound ahead of its results:

Row | Structure (SMILES) | melting point [°C]
48 | O=C1CCCCCC1c1ccccc1 (stereo unspecified) | 21 to 23
49 | CC1CC(=O)c2cc(Cl)ccc2S1 (stereo unspecified) | 64 to 65
50 | O=Cc1c[nH]c2ccc([N+](=O)[O-])cc12 | 300
51 | CCOCN(C(=O)CCl)c1c(C)cccc1CC | 10.6
52 | CN1CCN(C2=C(Cl)C(=O)c3ccccc3C2=O)CC1 | 120
53 | O=[N+]([O-])c1cccc(S(=O)(=O)OCC2CO2)c1 (stereo unspecified) | 61 to 65
54 | ClCc1ccccc1Cn1cncn1 | 52 to 57
55 | Cc1cc(Cn2nc(C)cc2C)c(O)c(Cn2nc(C)cc2C)c1 | 125
56 | O=C1OC(c2ccccc2)=NC1=Cc1ccccc1F | 148 to 149
57 | Nc1ccc([N+](=O)[O-])cc1Cl | 108
58 | Nc1ccc(Cn2ccnc2)cc1 | 128 to 130
59 | CCCCCCCCCCCCCCCCCCOO | 49.5
60 | Cc1cc2ccccc2nc1C | 68.5
61 | COc1ccc(C2NCCc3sccc32)cc1 (stereo unspecified) | 69 to 71
62 | O=Cc1ccc(-c2ccc(Cl)cc2)o1 | 128 to 131
63 | Nc1cc(C(F)(F)F)ccc1Cl | 10
64 | Nc1nnc(Sc2ncccc2[N+](=O)[O-])s1 | 216
65 | CCCCCCCCCCCCCCCCCCN=C=S | 29 to 33
66 | Cc1c(-c2ccccc2)n(C)c2ccccc12 | 69
67 | C1CN2CCN3CCN4CCN1C2C43 (stereo unspecified) | 30
68 | O=c1[nH]c(=O)n(C2OC(CO)C(O)C2O)cc1F (stereo unspecified) | 180 to 183

Row | Structure (SMILES) | melting point [°C]
69 | O=C1C(C(O)c2c(Cl)cccc2Cl)C(C(F)(F)F)=NN1c1ccccc1 (stereo unspecified) | 196
70 | N#CC1=C(N)Oc2[nH]nc(C(F)(F)F)c2C1c1ccc(O)cc1 (stereo unspecified) | 197
71 | COc1ccc(S(N)(=O)=O)cc1F | 126
72 | COc1cc2ccc(=O)oc2c(O)c1O | 231
73 | NCCC(c1ccccc1)c1ccccc1 | 29 to 31
74 | N#CCCn1cnc2c(N)ncnc21 | 255
75 | c1ccc(C/C(=N\Nc2ccccc2)c2cccc3ccccc23)cc1 | 101 to 102
76 | ClC=CBr | -86.7
77 | COc1cc(C=C(O)C(F)(F)C(F)(F)F)nc(OC)n1 | 58 to 60
78 | Cc1ccccc1N1C(=O)c2cc(S(N)(=O)=O)c(Cl)cc2NC1C (stereo unspecified) | 252
79 | N#Cc1c[nH]nc1N | 175
80 | Clc1ccc2c(c1)Cc1cc(Cl)ccc1-2 | 128
81 | Cn1c(=O)c(C2=NNC(=O)C2=CNc2ncccn2)c(O)c2ccccc21 | 279
82 | CC(C)(C)[N+]([O-])=Cc1ccccc1 | 71 to 75
83 | Oc1ccnc2c(C(F)(F)F)cccc12 | 172
84 | Fc1cc(CCl)c2c(c1)COCO2 | 78 to 80
85 | Ic1ccc(Cc2ccccc2)cc1 | 38 to 40
86 | C#CC1(O)CCC2(C)C(CCC3C4CCC(=O)C4(C)CCC32)C1 (stereo unspecified) | 237 to 238
87 | CC1OC(OC2C(Oc3cc(O)c4c(c3)OC(c3ccc(O)cc3)CC4=O)OC(CO)C(O)C2O)C(O)C(O)C1O (stereo unspecified) | 166
88 | O=S1(=O)OC(c2cc(Cl)c(O)c(Br)c2)(c2cc(Cl)c(O)c(Br)c2)c2ccccc21 | 230
89 | [N-]=[N+]=NC(=O)C=Cc1ccc(C=CC(=O)N=[N+]=[N-])cc1 | 80

Row | Structure (SMILES) | melting point [°C]
90 | CCCCCCCCOc1ccc(NC(=O)c2ccc(OC)cc2)cc1 | 152 to 154
91 | O=C(Cl)c1cc2cc([N+](=O)[O-])ccc2s1 | 157 to 158
92 | CCOc1ccc(N=C(CNc2ccc(OCC)cc2)Nc2ccc(OCC)cc2)cc1 | 113
93 | CN(C)c1ccc(C=CC(=O)c2ccccc2)cc1 | 114
94 | NC(=O)c1ccc(Cl)c([N+](=O)[O-])c1 | 152
95 | O=[N+]([O-])c1ccc(CS(=O)(=O)Cl)cc1 | 91 to 92
96 | Nc1ccc(S(=O)(=O)Nc2cnccn2)cc1 | 251
97 | O=Nc1c(-c2ccc3ccccc3c2)nc2ncccn12 | 249
98 | Clc1ccc(-c2csc3nc4ccccc4n23)cc1 | 200 to 203
99 | CC(NC(=O)C(C(F)(F)F)C(F)(F)F)c1ccccc1 (stereo unspecified) | 137
100 | COc1ccc(F)cc1 | -45
101 | Clc1ccc(-c2c(Cl)cc(Cl)c(Cl)c2Cl)cc1Cl | 107
102 | FCCCl | -50
103 | Cc1c(C)c(N)c(C)c(C)c1N | 150 to 153
104 | O=C(OCCc1cc([N+](=O)[O-])c(CCOC(=O)c2ccccc2)cc1[N+](=O)[O-])c1ccccc1 | 157 to 158
105 | FC(F)(F)COc1ccc(OCC(F)(F)F)cc1 | 76
106 | Cc1ccc(C2(O)CCN(CCCC(=O)c3ccc(F)cc3)CC2)cc1 | 118
107 | OCCNCCNCCO | 97.5
108 | O=C1NN=C(C(F)(F)F)C1=NNc1cc(-c2ccccc2)n[nH]1 | 271
109 | CNC1=C(c2cccc(C(F)(F)F)c2)C(=O)C(c2ccccc2)O1 (stereo unspecified) | 148
110 | O=S(=O)(Cl)c1c(Cl)cccc1Cl | 53

Row | Structure (SMILES) | melting point [°C]
111 | Cc1ccccc1N=O | 73.5
112 | Oc1ccc(OCc2ccccc2)cc1 | 122
113 | CCOc1nc2ccccc2c(=O)n1Cc1ccccc1 | 96 to 97
114 | O=C1C(=O)c2ccccc2CCc2ccccc21 | 132
115 | N#CCc1nc(-c2ccc(Cl)c(Cl)c2)cs1 | 106 to 107
116 | [N-]=[N+]=Nc1ccccc1-c1ccccc1 | 49
117 | Cc1cccc(C)c1OCC(C)N (stereo unspecified) | 204
118 | NCC(O)CN | 43
119 | Cn1ccc(=O)c2ccccc21 | 152
120 | OCc1cc(-c2ccco2)[nH]n1 | 159
121 | O=C1CC2(CCCC2)CC(=O)N1 | 153 to 155
122 | CCCCCCCCCCCCCCCBr | 19
123 | O=[N+]([O-])c1cccc2c(Br)n[nH]c12 | 175 to 185
124 | Cn1nc(CC#N)c2c(N)ncnc21 | 135 to 138
125 | Cc1oc(-c2ccccc2)nc1C=O | 87 to 88
126 | CCOC(=O)c1nn(-c2ccccc2)c(=N)c(-c2nc3ccccc3s2)c1C | 148
127 | O=C(OCc1ccccc1)N1CCC(CBr)CC1 | 68
128 | COc1ccc2c3c1OC1CC(O)C=CC31CCN(C)C2 (stereo unspecified) | 126
129 | NC(CCc1ccccc1)CC(=O)O (stereo unspecified) | 223 to 227
130 | Cn1c(CO)cc2occc21 | 74 to 76
131 | COc1ccc2nc(Cl)c(CO)cc2c1 | 133
